Experimental findings from patent US7514411B2, “Acylated benzylmaltosides as inhibitors of smooth muscle cell proliferation” (Wyeth, priority 1998, dated 2009) are described below.

The melting point is the temperature of the solid-liquid transition.

Series [1] concerns Porcine Smooth Muscle Cell. As to the kind of experiment: Effects of compounds on cell proliferation using 3H thymidine incorporation. The series is classed as cell-based. As to conditions: Sus scrofa; @ 50 μM; read-out: Porcine Smooth Muscle Cell Antiproliferation percent inhibition. The protocol:
The compounds of this invention are useful as antiproliferative agents. The following procedures show the evaluation of representative compounds of this invention in standard pharmacological test procedure which measured ability of the evaluated compound to inhibit smooth muscle cell proliferation
Effects of Compounds On Cell Proliferation Using ^3H Thymidine Incorporation
Human and porcine smooth muscle cells were tested in early passage (generally passage 3-7) at sub-confluent conditions. Cultures were grown in 16 mm (24 well) multi-well culture dishes in medium 199 supplemented with 10% fetal bovine serum and 2% antibiotic/antimycotic. At sub-confluence, the cells were placed in a defined serum free medium (AIM-V; Gibco) for 24-48 h prior to initiating the experimental protocol.
Compounds were added to each well at 50 fold dilution (20 μL/well) and the plates were incubated for 24-36 h at 37° C. in 5% CO2. Compounds were initially dissolved in 50% ethanol and serially diluted into media. Compounds were routinely evaluated at concentrations from 1 to 100 μM. As a control, grade II porcine intestinal mucosal heparin (sodium salt) was routinely evaluated in all cell preparations at concentrations from 0.1 to 100 μg/mL.
At the completion of the test procedure, plates were placed on ice, washed three times with ice cold phosphate buffered saline (PBS) and incubated in ice cold 10% trichloroacetic acid (TCA) got 30 min to remove acid soluble proteins. Solution was transferred to scintillation vials containing 0.4 N HCl (500 μL/vial to neutralize NaOH) and each well was rinsed two times with water (500 μL) for a total volume of 2 mL/vial.
Data was obtained, in triplicate, for both control and experimental samples. Control (100%) data was obtained from maximally stimulated cells, as the result of growth factor or serum stimulation. Experimental data was obtained from cells maximally stimulated with growth factor or serum and treated with compound. Data are expressed as an IC50 or percent inhibition in Table I below.
On the technique in general: Incorporation of labelled thymidine or its analogues reports DNA synthesis.

Molecules are shown by their SMILES. Where only a bound is given, the exact number is not on record here.

In the case of `O=C(Nc1cc(CO[C@@H]2O[C@H](CO)[C@@H](O[C@H]3O[C@H](CO)[C@@H](O)[C@H](O)[C@H]3O)[C@H](O)[C@H]2O)ccc1Cl)c1cccnc1` [Example 16, N-[2-Chloro-5-[[(4-O-α-D-glucopyranosyl-β-D-glucopyranosyl)oxy]methyl]phenyl]-3-pyridinecarboxamide], the melting point is > 106 °C (dec.). For the same compound, the inhibition at 50 µM in series [1] worked out at 18%.
